Test results reported in patent US7741303B2, “Stimulation of cellular regeneration and differentiation in the inner ear” (Sound Pharmaceuticals Incorporated, priority 1998, dated 2010).

Experiments:
[1] = system: utricular, saccular and cristae sensory epithelium; test: BrdU-labeled cells in the vestibular organs of p27^Kip1 mice after amikacin/BrdU; format: in vivo; details: for number of BrdU labeled cells, utricle: BrdU/Amikacin (500 mg/kg/d s.c., P7-P12)
Protocol: To determine whether p27^Kip1 plays a similar role in the peripheral vestibular system, the proliferative capacity of the utricle, saccule and cristae of p27^Kip1 +/−, and +/+ mice was examined. Mice (P7-P12) received systemic injections of amikacin sulfate (500 mg/kg/d/s.c) for six consecutive days that were combined with injections of the replication marker, bromodeoxyuridine (BrdU; 30 mg/kg/d/s.c) between P10-P12. Mice were also injected with BrdU alone in a similar fashion. Mice were then sacrificed 14 d later and the vestibular sensory organs were fixed, dissected and processed for BrdU immunocytochemistry. BrdU positive nuclei were counted from whole mounts using light microscopy and Nomarski optics. Selected organs were further processed for cross section analysis.
BrdU positive HCs were also observed in both otolithic organs. Most of these regenerated HC appeared as type I HCs in that they were contacted by a calyx. […] In p27^Kip1 +/+ mice, no BrdU positive nuclei in either the saccule or utricle were observed after amikacin/BrdU or BrdU alone. […] Counts were performed from whole utricular, saccular and cristae sensory epithelium (±s.d.). In the BrdU group, statistical significance was determined by comparing proliferation levels in the same sensory organ across +/+, +/− and −/−. In the BrdU/Amikacin group, statistical significance was determined by comparing proliferation levels in the same sensory organ of the same genotype. Statistical significance was determined using ANOVA.

auditory function = test: Auditory brainstem response (ABR) threshold after amikacin sulfate treatment; format: in vivo, mice; details: p27 heterozygotes, two and four weeks after amikacin sulfate treatment; p<0.001
Protocol: Experimental animals were treated the same as the mice described in the experiments reported in Table 2 herein, except that, in the present example, there was an additional recovery time point at four weeks after amikacin treatment. Auditory function was measured using the auditory brainstem response (ABR) using subcutaneous recording electrodes placed on three head points in Isofluorane anesthetized mice. The sound intensity threshold was determined by presenting single frequencies as different sound intensities (intensity measured in decibels). The higher the tone intensity that is required to elicit the ABR, the higher the auditory threshold, i.e., the worse the auditory function.

organ of Corti = test: BrdU-labeled cells in the organ of Corti of p27^Kip1 +/+, +/−, −/− mice after amikacin lesioning; format: in vivo; details: for number of BrdU labeled cells in the organ of Corti: 1000 μm length of sensory epithelium, apical half of cochlea, ±s.d.
Protocol: To determine whether auditory hair cells were being produced after the onset of hearing at postnatal day 10, two-week old p27^Kip1 −/−, +/−, +/+ mice (P10-12) received three daily systemic injections of bromodeoxyuridine (BrdU; 30 mg/kg/s.c), a nucleotide analog which is incorporated into proliferating cells during S phase. Mice were then permitted to recover for two-days or two-weeks without further injections. BrdU positive HCs were identified with immunocytochemistry using light and fluorescence microscopy. Cochlea were also labeled with antibodies against myosin-VI and myosin-VIIa. In two-week old p27^Kip1 −/− cochlea that were recovered for 2d after the last injection, no BrdU/myosin-VIIa positive cells were observed among the BrdU positive cells. However, in four-week old p27^Kip1 −/− cochlea that were recovered for 14 days after the last injection, BrdU/myosin-VIIa positive HCs were observed. Most of those double labeled were IHCs. This qualitative finding is similar to our quantitative assessments of IHCs and OHCs numbers. p27^Kip1 +/−, +/+ mice were completely devoid of BrdU positive cells at 2d and 14d of recovery. […] Counts were performed on a 1000 μm length of sensory epithelium taken in the apical half of the cochlea (±s.d.). Proliferation in the BrdU groups were compared across +/+, +/−and −/−. Proliferation in the BrdU/Amikacin group was compared with that in the BrdU only group of the same genotype. Statistical significance was determined using ANOVA.
To ascertain whether auditory HCs could be regenerated, HCs were lesioned using systemic injections of amikacin sulfate (P7-P12) and then injected with BrdU (P10-12). Mice were sacrificed either 2 d or 14 d after the last injection. The effects of an amikacin lesioning were at least two-fold. First, in both p27^Kip1 −/− and +/− mice, the number of BrdU positive cells increased following amikacin/BrdU vs BrdU alone treatment. […] Evidence of HC regeneration was confirmed by sectioning the labeled cochlea. Second, a greater number of BrdU positive HCs were observed following amikacin lesioning in p27^Kip1 −/− cochlea. The majority of the BrdU positive HCs appeared in the regions of the cochlea where the amikacin sulfate had injured or killed HCs (in the basal half of the cochlea).

[2] = system: supporting cells of wild type organ of Corti explants; test: p27^Kip1 antisense oligonucleotide treatment of neomycin-lesioned organ of Corti explants, BrdU immunocytochemistry; format: cell-based, mouse
Protocol: (§1) To test whether inhibition of the p27^Kip1 gene product in p27^Kip1 +/+ cochlea would allow non-mitotic supporting cells to proliferate, wild type organ of Corti explants (P7-P10, at age of hearing onset) were treated with p27^Kip1 antisense oligonucleotides (ONs). Explant cultures were established by dissecting the organ of Corti from the cochlea, removing the tectorial membrane and adhering the organ of Corti to a glass slide coated with Cell-tak and maintained at 37° C. in a 5% CO2 environment. The explant was then exposed to an ototoxic antibiotic (1 mM neomycin sulfate) for 48 h which killed >95% of the HCs (Kil, J., et al., ARO abs. 21:672 (1998)). The neomycin containing media was then removed and p27^Kip1 antisense oligonucleotides (Ons) (40 nM) were administered using a cationic lipid (lipofection) for a period of 24-48 hr. Some of these living cultures were examined under fluorescence to detect the presence of FITC conjugated antisense ON.
FITC-positive supporting cells were detected in 18-24 h and increased in number and fluorescent intensity between 24-48 h. Cultures were aldehyde fixed and processed for BrdU immunocytochemistry. […] BrdU-positive doublets appeared in antisense ON treated cultures that were recovered for an additional 24 hr without antisense ONs. […] Lipofection-only treated cultures contained very low levels of BrdU-labeled supporting cells.

[3] = system: hair cells of organ of Corti explant; test: Hair cell lesioning of organ of Corti cultures with neomycin; format: cell-based, mouse; details: 1 mM neomycin, organotypic cultures, 48 h, calbindin immunoreactivity and cross-section analysis
Protocol: as §1, with “The neomycin containing media was then removed and p27^Kip1 antisense oligonucleotides (Ons) (40 nM) were administered using a cationic lipid (lipofection) for a period of 24-48 hr.” left out, “ON. […]” for “ON.”
An aminoglycoside antibiotic lesion of the hair-cells is then be combined with subsequent lipofection. […] Unlike cultures derived from neonatal mice, the two-week old mouse which has developed auditory function is more easily affected by this concentration of neomycin resulting in a greater than 95% loss of hair-cells as determined by calbindin immunoreactivities and plastic cross-section analysis. […] This may necessitate the use of a commercially available GFP antibody (Clonetech) to enhance the fluorescence of lipofected cells.

[4] = system: hair cells of organ of Corti explant; details: 1 mM neomycin sulfate for 48 h; P7-P10 wild type explants; cited from earlier work
guinea pig JH4 cells = test: Reversal of serum-deprivation growth arrest, BrdU labeling; format: cell-based
Text: Cells were counted under fluorescence microscopy. The combination of lipids and p27^kip1. AS reversed growth arrest to 40% of that seen with 10% FBS stimulation (p<0.0001). (+) FBS; (−) no FBS; (AS) antisense oligonucleotide; (lipid) lipofection.
Cultures of cell lines were established that are responsive to p27^Kip1 antisense oligonucleotides (ON) during the period of serum withdrawal and growth arrest. These cultures include a guinea pig fibroblast line (JH4). Lipofection of the 16 mer antisense ON (having the nucleic acid sequence set forth in SEQ ID NO:20) reversed growth arrest in the JH4 cell line to over 40% of normal.

[5] = p27^Kip1 +/+ mice, BrdU/Amikacin, 14 d recovery, whole sensory epithelium, ±s.d.
[6] = p27^Kip1 +/− mice, BrdU/Amikacin, 14 d recovery, whole sensory epithelium, ±s.d.
[7] = p27^Kip1 −/− mice, BrdU/Amikacin, 14 d recovery, whole sensory epithelium, ±s.d.

For NCC[C@H](O)C(=O)N[C@@H]1C[C@H](N)[C@@H](O[C@H]2O[C@H](CN)[C@@H](O)[C@H](O)[C@H]2O)[C@H](O)[C@H]1O[C@H]1O[C@H](CO)[C@@H](O)[C@H](N)[C@H]1O.O=S(=O)(O)O.O=S(=O)(O)O [Amikacin, amikacin sulfate], the “number of BrdU labeled cells, utricle” value ([1]; p27^Kip1 +/+ mice, 14 d recovery, whole sensory epithelium, ±s.d.) was 0.0 ± 0.0, the “number of BrdU labeled cells, cristae” value [1, 5] was 0.0 ± 0.0 and the “number of BrdU labeled cells, saccule” value [1, 5] was 0.0 ± 0.0. The “proliferation in the saccule or utricle after combined amikacin/BrdU treatment” value ([1]; p27^Kip1 +/− mice) was “a very low level of proliferation was induced”, the “number of BrdU labeled cells, utricle” value ([1]; p27^Kip1 +/− mice, 14 d recovery, whole sensory epithelium, ±s.d.) was 0.4 ± 0.7 and the “number of BrdU labeled cells, cristae” value [1, 6] was 0.0 ± 0.0. The “number of BrdU labeled cells, saccule” value [1, 6] was 1.6 ± 1.9, the “number of BrdU labeled cells, utricle” value ([1]; p27^Kip1 −/− mice, 14 d recovery, whole sensory epithelium, ±s.d.) was 45.5 ± 19.2 and the “number of BrdU labeled cells, cristae (sub-head printed as utricle)” value [1, 7] was 0.0 ± 0.0. For the same compound, the “number of BrdU labeled cells, saccule” value [1, 7] was 51.8 ± 15.3, the “increase in the number of BrdU positive cells after combined amikacin/BrdU treatment” value ([1]; p27^Kip1 −/− mice, saccule and utricle (both organs), versus BrdU only) was 40 fold and the “auditory improvement (ABR threshold)” value (auditory function) was “five out of eight”. The “number of BrdU positive cells following amikacin/BrdU vs BrdU alone treatment” value (organ of Corti; cochlea of both p27^Kip1 −/− and +/− mice) was “increased”, the “number of BrdU labeled cells in the organ of Corti” value (from here on “number … of Corti”) (organ of Corti; p27^Kip1 +/+ mice, BrdU/Amikacin + 2d recovery) was 0.0 ± 0.0 and the “number … of Corti” value (organ of Corti; p27^Kip1 +/+ mice, BrdU/Amikacin + 14d recovery) was 0.0 ± 0.0. The “number … of Corti” value (organ of Corti; p27^Kip1 +/− mice, BrdU/Amikacin + 2d recovery) was 4.7 ± 7.6, the “number … of Corti” value (organ of Corti; p27^Kip1 +/− mice, BrdU/Amikacin + 14d recovery) was 10.5 ± 12.0 and the “number … of Corti” value (organ of Corti; p27^Kip1 −/− mice, BrdU/Amikacin + 2d recovery) was 96.3 ± 9.5. The “number … of Corti” value (organ of Corti; p27^Kip1 −/− mice, BrdU/Amikacin + 14d recovery) was 137.4 ± 17.0, the “p27 heterozygotes showing evidence of inner cell proliferative regeneration (BrdU-labeling and morphologic criteria)” value (organ of Corti; p27 heterozygotes of Table 2, amikacin treated) was “five out of ten” and the “BrdU positive cells in wt cochlea” value (organ of Corti; wt cochlea following amikacin/BrdU) was “No BrdU positive cells were observed”.

For “antisense ON: p27^Kip1 antisense oligonucleotides administered using a cationic lipid (lipofection) to organ of Corti explants (antisense TGGCTCTCCTGCGCC; FITC conjugated, delivered with cationic lipid, further chemistry not given here)”, the BrdU-positive supporting cells ([2]; 40 nM antisense ON by lipofection, after 24 h of treatment, after 1 mM neomycin 48 h) was “appeared in most cochlear cultures”, the “time at which FITC-positive supporting cells were detected” value ([2]; FITC conjugated antisense ON, lipofection, living cultures under fluorescence) was 18 to 24 h and the BrdU-positive doublets ([2]; antisense ON treated cultures recovered for an additional 24 hr without antisense ONs) was “appeared”.

In the case of neomycin sulfate, the “loss of hair cells” value [3] is listed as “greater than 95%”, the “loss of hair cells” value ([3]; listed as neomycin) is listed as 95% and the HCs killed [4] is listed as greater than 95%.

In the case of “16 mer antisense ON: 16 mer p27^Kip1 antisense ON having the nucleic acid sequence set forth in SEQ ID NO:20 (antisense TGGCTCTCCTGCGCC; listed as DNA, chemistry not given here)”, the “reversal of growth arrest” value (guinea pig JH4 cells; lipofection, serum withdrawal) is reported as “over 40 % of normal” and the “reversal of growth arrest (BrdU-labeled cells)” value (guinea pig JH4 cells; serum deprivation 24 hours, BrdU pulse last 4 hours, combination of lipids and AS, p<0.0001) is reported as 40 % of that seen with 10% FBS stimulation.
